The nature of the data set: Excipient screen (fillers, disintegrants, glidants, lubricants): tablets evaluated at accelerated conditions. In kind it is physicochemical. The note with it: tablets at accelerated conditions (40° C./75% RH); for filler the active ingredient is compatible with: physical characteristics and content of active ingredient. On the procedure: Experiments to screen fillers, disintegrants, glidants and lubricants were conducted for the composition according to the present invention. Tablets were evaluated for physical characteristics and content of active ingredient at accelerated conditions (40° C./75% RH). The assay values were analysed statistically. […] Of all lubricants examined, chlorambucil was most compatible with stearic acid.

`N[C@@H](Cc1ccc(N(CCCl)CCCl)cc1)C(=O)O` [melphalan, 4-[bis(2-chloroethyl)amino]-L-phenylalanine]: the “filler the active ingredient is compatible with” value is reported as “microcrystalline cellulose”.
`O=C(O)CCCc1ccc(N(CCCl)CCCl)cc1` [chlorambucil, 4-[bis(2-chloroethyl)amino]-benzenebutanoic acid]: the “filler the active ingredient is compatible with” value is “a mixture of anhydrous lactose and microcrystalline cellulose”. Besides, the “lubricant the active ingredient is most compatible with” value (of all lubricants examined) was “stearic acid”.

The values are drawn from US20040034099A1, “Pharmaceutical composition” (priority 2002, published 2004).
